Consider seven compounds from patent US9533978B2 (AstraZeneca AB, priority 2009, dated 2017).

pEC50: −log10 of the molar value.

The target of this assay is T1, Recombinant human TLR7 (Homo sapiens, UniProt Q9NYK1).
T1 construct: expressed in transfected cells; host or cells: HEK293 cell line stably expressing the pNiFty2-SEAP reporter plasmid; TLR7 in vector pUNO, blasticidin selection
T1 sequence (Q9NYK1 27-1049): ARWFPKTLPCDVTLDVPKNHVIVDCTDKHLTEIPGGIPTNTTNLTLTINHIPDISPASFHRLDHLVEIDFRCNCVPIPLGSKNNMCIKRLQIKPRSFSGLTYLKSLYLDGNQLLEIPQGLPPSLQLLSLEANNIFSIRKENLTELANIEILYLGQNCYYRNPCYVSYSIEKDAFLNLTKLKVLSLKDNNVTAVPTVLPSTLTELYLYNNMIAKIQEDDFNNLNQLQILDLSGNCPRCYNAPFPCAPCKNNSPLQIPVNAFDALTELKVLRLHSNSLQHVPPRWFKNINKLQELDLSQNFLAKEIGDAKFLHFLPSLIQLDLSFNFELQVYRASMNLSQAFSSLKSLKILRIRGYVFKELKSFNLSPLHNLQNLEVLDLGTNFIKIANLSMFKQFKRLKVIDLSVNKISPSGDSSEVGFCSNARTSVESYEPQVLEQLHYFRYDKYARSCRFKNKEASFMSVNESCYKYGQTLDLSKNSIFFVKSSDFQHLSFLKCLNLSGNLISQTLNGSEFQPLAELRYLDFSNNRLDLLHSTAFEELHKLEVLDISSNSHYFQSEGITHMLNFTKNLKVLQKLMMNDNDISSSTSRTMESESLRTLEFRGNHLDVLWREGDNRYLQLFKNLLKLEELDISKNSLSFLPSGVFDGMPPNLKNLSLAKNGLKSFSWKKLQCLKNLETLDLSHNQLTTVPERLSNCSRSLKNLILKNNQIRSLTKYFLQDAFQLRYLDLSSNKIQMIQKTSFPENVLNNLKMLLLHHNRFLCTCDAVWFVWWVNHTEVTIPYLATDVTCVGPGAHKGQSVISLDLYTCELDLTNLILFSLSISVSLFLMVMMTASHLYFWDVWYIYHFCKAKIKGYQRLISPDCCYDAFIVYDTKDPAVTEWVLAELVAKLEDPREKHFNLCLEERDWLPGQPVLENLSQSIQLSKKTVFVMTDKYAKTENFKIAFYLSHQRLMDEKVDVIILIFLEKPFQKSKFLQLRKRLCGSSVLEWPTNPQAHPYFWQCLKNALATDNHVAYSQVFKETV
The assay is described as follows: Human TLR7 assay (HEK293 SEAP reporter). Type of assay: cell-based. As to conditions: degree of TLR7 activation; SEAP induction in HEK293 cells stably expressing recombinant human TLR7 and pNiFty2-SEAP reporter, overnight incubation at 37° C., 0.1% (v/v) DMSO. The procedure: The ability of compounds to activate TLR7 in vitro was assessed using the human TLR7 assay described below.
Recombinant human TLR7 was stably expressed in a HEK293 cell line already stably expressing the pNiFty2-SEAP reporter plasmid; integration of the reporter gene was maintained by selection with the antibiotic zeocin. The most common variant sequence of human TLR7 (represented by the EMBL sequence AF240467) was cloned into the mammalian cell expression vector pUNO and transfected into this reporter cell-line. Transfectants with stable expression were selected using the antibiotic blasticidin. In this reporter cell-line, expression of secreted alkaline phosphatase (SEAP) is controlled by an NFkB/ELAM-1 composite promoter comprising five NFkB sites combined with the proximal ELAM-1 promoter. TLR signaling leads to the translocation of NFkB and activation of the promoter results in expression of the SEAP gene. TLR7-specific activation was assessed by determining the level of SEAP produced following overnight incubation of the cells at 37° C. with the standard compound in the presence of 0.1% (v/v) dimethylsulfoxide (DMSO). Concentration dependent induction of SEAP production by compounds was expressed as the concentration of compound which produced half of the maximal level of SEAP induction for that compound (EC50).
By pEC50 is commonly meant the negative decadic logarithm of the EC50, by convention in mol/L. Turning to `CCCCCNc1nc(N)nc(C)c1Cc1ccc(OCCCN(C)C)cc1OC` [Example 11, 5-(4-(3-(Dimethylamino)propoxy)-2-methoxybenzyl)-6-methyl-N^4-pentylpyrimidine-2,4-diamine], the pEC50 is 8.60.

In the case of `CCCCCNc1nc(N)nc(C)c1Cc1ccc(OCCCN2CCCC2)cc1` [Example 9, 6-Methyl-N^4-pentyl-5-(4-(3-(pyrrolidin-1-yl)propoxy)benzyl)pyrimidine-2,4-diamine], the pEC50 was 7.20. For `CCCCCNc1nc(N)nc(C)c1Cc1ccc(OCCCN2CCN(C)CC2)cc1OC` [Example 38, 5-(2-Methoxy-4-(3-(4-methylpiperazin-1-yl)propoxy)benzyl)-6-methyl-N^4-pentylpyrimidine-2,4-diamine] the value was 8.20; for `CCCCCNc1nc(N)nc(C)c1Cc1cccc(CN(C)C)c1` [Example 29, 5-(3-((Dimethylamino)methyl)benzyl)-6-methyl-N^4-pentylpyrimidine-2,4-diamine], 6.50. The result for `CCCCCNc1nc(N)nc(C)c1Cc1cc(C(=O)OC)ccc1F` [Example 17, Methyl 3-((2-amino-4-methyl-6-(pentylamino)pyrimidin-5-yl)methyl)-4-fluorobenzoate] reads 5.50; that for `CCCCCNc1nc(N)nc(C)c1Cc1ccc(OC)cc1` [Example 1, 5-(4-Methoxybenzyl)-6-methyl-N^4-pentylpyrimidine-2,4-diamine], 5.70; that for `COC(=O)Cc1cccc([C@@H](CCO)Nc2nc(N)nc(C)c2Cc2ccc(OCCCN(C)C)cc2)c1` [Example 34, (R)-Methyl 2-(3-(1-(2-amino-5-(4-(3-(dimethylamino)propoxy)benzyl)-6-methylpyrimidin-4-ylamino)-3-hydroxypropyl)phenyl)acetate], 5.70.
